Data set [1] in a line: Lipophilicity, logD of the compound at pH 7.4. The class given is physicochemical. The note with it: buffer.
A short description of data set [2]: Aqueous solubility of the compound in pH 7.4 buffer. The data set is classed as physicochemical.
Data set [3] addresses Voltage-gated inwardly rectifying potassium channel KCNH2 (Homo sapiens, UniProt Q12809). The data set can be described thus: Inhibition of human ERG. The data set is classed as toxicity.
Data set [4] can be described thus: Metabolic stability in rat hepatocytes measured per million cells. The data set is classed as ADME, cell-based, Hepatocyte. The note with it: read-out: CLH.
Data set [5] is described as follows: Oral bioavailability in rat. The class given is ADME, organism-based. The note with it: in vivo.
A short description of data set [6]: Metabolic stability in human hepatocytes measured per million cells. The class given is ADME, cell-based, Hepatocyte. The note with it: read-out: CLH.
The nature of data set [7]: Clearance in rat. The class given is ADME. The note with it: in vivo.
The nature of data set [8]: Efflux ratio of apparent permeability basolateral to apical side over apical to basolateral side in human Caco-2 cells. The data set is classed as ADME, cell-based. For orientation: Caco-2 monolayers are a common model of the intestinal barrier.
The target of data set [9] is T1, Monocarboxylate transporter 4 (Homo sapiens, UniProt O15427).
T1 sequence (O15427 whole entry): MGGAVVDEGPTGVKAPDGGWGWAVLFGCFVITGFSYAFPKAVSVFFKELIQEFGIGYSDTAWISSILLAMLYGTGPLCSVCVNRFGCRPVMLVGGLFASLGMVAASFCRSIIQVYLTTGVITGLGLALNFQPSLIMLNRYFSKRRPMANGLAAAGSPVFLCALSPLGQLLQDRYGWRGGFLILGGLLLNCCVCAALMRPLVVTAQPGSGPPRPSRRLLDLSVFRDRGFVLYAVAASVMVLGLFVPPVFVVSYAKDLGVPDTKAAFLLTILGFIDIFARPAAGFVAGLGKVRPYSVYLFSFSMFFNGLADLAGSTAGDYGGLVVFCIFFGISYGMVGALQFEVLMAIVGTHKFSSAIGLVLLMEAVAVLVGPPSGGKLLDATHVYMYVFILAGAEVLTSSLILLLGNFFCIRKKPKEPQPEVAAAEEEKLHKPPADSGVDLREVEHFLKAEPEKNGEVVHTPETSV
The data set can be described thus: Inhibition of MCT4 in human SK-BR-3 cells assessed as inhibition of lactate efflux incubated for 4 hrs by automated microplate reader analysis. The class given is cell-based.

Data set [10] is described as follows: Plasma protein binding in dog assessed as free fraction. The class given is ADME, cell-free, Canis lupus familiaris.
Data set [11] can be described thus: Plasma protein binding in human assessed as free fraction. The class given is ADME, cell-free.
Data set [12] in a line: Toxicity in mouse assessed as body weight loss at 100 mg/kg BID administered twice daily for 17 days via oral gavage. The class given is organism-based. The note with it: in vivo, 408 h, time 17 day.
Data set [13] relates to NCI-H358. The data set is described as follows: Antiproliferative activity against human NCI-H358 cells assessed as cell growth inhibition. The data set is classed as functional.
Data set [14] in a line: Clearance in Wistar rat at 2 mg/kg, iv. The class given is ADME, organism-based. The note with it: in vivo.
Data set [15] in a line: Metabolic stability in human hepatocytes assessed as intrinsic clearance measured per million cells. The data set is classed as ADME, cell-based, Hepatocyte. The note with it: read-out: CLH.
The nature of data set [16]: Plasma protein binding in rat assessed as free fraction. The class given is ADME, cell-free.
Data set [17] can be described thus: Oral bioavailability in Wistar rat at 5 mg/kg. The data set is classed as ADME, organism-based. The note with it: in vivo.
Data set [18] can be described thus: Oral bioavailability in Beagle dog at 2 mg/kg. The note with it: in vivo. The data set is classed as ADME, organism-based, Canis lupus familiaris.
The nature of data set [19]: Toxicity in mouse assessed as body weight loss at 100 mg/kg BID administered twice daily for 17 days via oral gavage in presence of cediranib. The note with it: in vivo, 408 h, time 17 day. The class given is organism-based.
Data set [20] is described as follows: Metabolic stability in dog hepatocytes assessed as intrinsic clearance measured per million cells. The data set is classed as ADME, cell-based, Canis lupus familiaris, Hepatocyte. The note with it: read-out: CLH.
Data set [21] in a line: Thermodynamic solubility of the compound in FaSSIF using crystalline form of sample at pH 6.5. The data set is classed as physicochemical. The note with it: read-out: Therm_solubility.
Data set [22] has as its target T2, Monocarboxylate transporter 1 (Homo sapiens, UniProt P53985).
T2 sequence (P53985 whole entry): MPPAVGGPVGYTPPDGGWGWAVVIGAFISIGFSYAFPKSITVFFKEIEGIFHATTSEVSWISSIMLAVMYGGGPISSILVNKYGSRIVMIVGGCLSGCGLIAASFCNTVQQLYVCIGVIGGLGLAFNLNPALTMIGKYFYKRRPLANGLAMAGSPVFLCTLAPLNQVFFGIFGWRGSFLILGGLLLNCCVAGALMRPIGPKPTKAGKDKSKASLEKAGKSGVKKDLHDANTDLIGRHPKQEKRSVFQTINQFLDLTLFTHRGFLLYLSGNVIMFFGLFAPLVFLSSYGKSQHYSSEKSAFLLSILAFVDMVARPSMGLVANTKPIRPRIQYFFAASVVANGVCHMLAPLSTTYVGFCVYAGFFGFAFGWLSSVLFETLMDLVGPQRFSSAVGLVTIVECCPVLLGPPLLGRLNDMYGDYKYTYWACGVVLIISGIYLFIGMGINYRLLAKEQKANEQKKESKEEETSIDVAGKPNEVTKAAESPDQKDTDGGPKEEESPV
The data set is described as follows: Inhibition of MCT1 in human K562 cells assessed as inhibition of lactate efflux incubated for 1 hr by FLIPR method. The class given is cell-based.

Data set [23] is described as follows: Clearance in Beagle dog at 1 mg/kg, iv. The note with it: in vivo. The class given is ADME, organism-based, Canis lupus familiaris.
Data set [24] is described as follows: Apparent permeability of the compound across apical side to basolateral side in human Caco-2 cells. The data set is classed as ADME, cell-based.

Converted amounts (≈) assume the structure as drawn. Where only a bound is given, the exact number is not on record here.

Consider 17 molecules from ChEMBL document CHEMBL5316265, “Discovery of Clinical Candidate AZD0095, a Selective Inhibitor of Monocarboxylate Transporter 4 (MCT4) for Oncology” (J Med Chem, 2023).

Sequence of Voltage-gated inwardly rectifying potassium channel KCNH2 (Q12809 whole entry): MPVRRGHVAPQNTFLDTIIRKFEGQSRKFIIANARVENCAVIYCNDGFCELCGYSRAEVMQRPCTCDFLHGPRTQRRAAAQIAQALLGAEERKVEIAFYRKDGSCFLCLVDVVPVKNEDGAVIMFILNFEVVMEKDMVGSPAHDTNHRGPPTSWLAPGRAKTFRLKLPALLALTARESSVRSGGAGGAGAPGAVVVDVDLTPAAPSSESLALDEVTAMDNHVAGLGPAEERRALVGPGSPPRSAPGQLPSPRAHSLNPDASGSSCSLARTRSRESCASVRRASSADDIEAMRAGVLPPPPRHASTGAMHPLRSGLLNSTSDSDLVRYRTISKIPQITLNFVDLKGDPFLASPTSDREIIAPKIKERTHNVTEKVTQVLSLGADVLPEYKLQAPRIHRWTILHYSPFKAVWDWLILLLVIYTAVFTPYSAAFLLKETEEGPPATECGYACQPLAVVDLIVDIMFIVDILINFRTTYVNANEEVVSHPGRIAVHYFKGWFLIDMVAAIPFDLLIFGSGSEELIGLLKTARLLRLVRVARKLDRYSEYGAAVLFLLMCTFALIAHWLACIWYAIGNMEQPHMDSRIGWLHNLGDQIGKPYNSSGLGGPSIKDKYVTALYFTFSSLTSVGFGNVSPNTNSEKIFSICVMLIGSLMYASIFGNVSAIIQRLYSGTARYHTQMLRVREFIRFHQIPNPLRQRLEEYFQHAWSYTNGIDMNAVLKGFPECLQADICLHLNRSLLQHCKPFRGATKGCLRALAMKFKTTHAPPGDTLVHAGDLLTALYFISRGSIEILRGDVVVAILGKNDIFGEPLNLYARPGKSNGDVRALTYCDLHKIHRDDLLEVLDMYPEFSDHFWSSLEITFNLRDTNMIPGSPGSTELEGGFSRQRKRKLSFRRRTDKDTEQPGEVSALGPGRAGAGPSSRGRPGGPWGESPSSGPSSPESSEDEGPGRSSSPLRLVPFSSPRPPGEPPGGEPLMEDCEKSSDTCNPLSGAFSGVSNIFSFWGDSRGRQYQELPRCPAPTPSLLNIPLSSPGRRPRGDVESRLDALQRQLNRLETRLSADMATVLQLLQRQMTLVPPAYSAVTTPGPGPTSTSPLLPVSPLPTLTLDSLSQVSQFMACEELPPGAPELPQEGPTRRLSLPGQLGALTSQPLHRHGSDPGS

In the case of `Cc1nc2nc(C)c(CCNC(=O)c3ccc(-c4ccccc4)cc3)c(C)n2n1`, the logD (commonly the decadic logarithm of the distribution of all forms, ionised or not, between an organic phase and buffer at a given pH) in data set [1] turned out to be 3.4. Also, the solubility – broadly, how much of the substance goes into solution per volume – in data set [2] is 2 µM (≈ 0.771 µg/mL).
Consider `Cc1nc2nc(C)c(CCNC(=O)c3cnc(-c4ccc([C@@H]5COCCN5C)cc4)cn3)c(C)n2n1`, for which the log distribution coefficient (logD) in data set [1] was found to be 1.9. The same molecule had a solubility in data set [2] above 300 µM.
Consider `Cc1nc2nc(C)c(C[C@@H]3CCN(c4ccc(-c5ccc(CN6CCOCC6)nn5)cc4)C3)c(C)n2n1`, for which the logD in data set [1] turned out to be 2.3. The half-maximal inhibitory concentration (IC50) – broadly, the concentration that inhibits the measured activity by half – in data set [3] was 13 µM.
Take `Cc1nc2ncnn2c(C)c1CCC(=O)Nc1nnc(-c2ccc(C(C)C)cc2)s1`: the log distribution coefficient (logD) in data set [1] came to 3.7.
In data set [1], `Cc1nc2nc(C)c(CCNC(=O)c3cnc(-c4ccc([C@H]5COCCN5C)cc4)cn3)c(C)n2n1` had a log distribution coefficient (logD) of 1.9. This molecule displayed a solubility in [2] of 224 µM (≈ 109 µg/mL).
The matching figures for `Cc1nc2nc(C)c(CCNC(=O)c3cnc(-c4ccccc4)cn3)c(C)n2n1`: 2.4 and 3 µM (≈ 1.16 µg/mL).
`Cc1nc2nc(C)c(C[C@@H]3CCN(c4cnc(-c5ccc(CN6CCN(C)CC6)cc5)cn4)C3)c(C)n2n1` showed a logD in data set [1] of 2. This molecule also yielded an IC50 in data set [3] above 24 µM. Besides, the values for the hepatocyte CLint in data set [4] and in [6] were below 2 µL/min/1e6 cells and 1.9 µL/min/1e6 cells, respectively. Besides, the bioavailability in data set [5] came out at 61%. For the same molecule, in data set [7], the clearance (in general, the rate of elimination divided by the concentration) was 29 mL/min/kg.
In the case of `Cc1nc2nc(C)c(CCC(=O)Nc3nnc(-c4ccccc4)s3)c(C)n2n1`, in data set [1], the logD was determined as 2.8.
In the case of `CC(=O)N1CCN(Cc2ccc(-c3ccc(N4CC[C@@H](Oc5c(C)nc6nc(C)nn6c5C)C4)cc3)nn2)CC1`, in data set [1], the logD was found to be 1.4. Also, the IC50 in data set [3] is above 33 µM.
Molecule `Cc1nc2nc(C)c(O[C@@H]3CCN(c4ccc(-c5ccc(CN6CCN(C)CC6)nn5)cc4)C3)c(C)n2n1` displayed a logD in data set [1] of 1.4. The IC50 in data set [3] is above 33 µM.
Consider `Cc1nc2nc(C)c(CCNC(=O)c3nnc(-c4ccccc4)s3)c(C)n2n1`, for which, in data set [1], the log distribution coefficient (logD) is 2.5.
With `Cc1nc2nc(C)c(C[C@@H]3CCN(c4ccc(-c5cnc(CN6CCOCC6)cn5)cc4)C3)c(C)n2n1`, the logD in data set [1] came out at 2.7.
With `Cc1nc2nc(C)c(C[C@@H]3CCN(c4cnc(-c5ccc(CN6CCOCC6)cc5)cn4)C3)c(C)n2n1`, the log distribution coefficient (logD) in data set [1] is 2.6. In addition, the IC50 in data set [3] is 1.8 µM; in data set [9] it was below 0.00038 µM. The hepatocyte CLint in data set [4] turned out to be 13 µL/min/1e6 cells; in [6] it was 3.4 µL/min/1e6 cells. Further, the efflux ratio (as a rule, a quotient of directional permeabilities that is used to spot active efflux) in data set [8] was 1.1. The bioavailability in data set [5] was 47%. This molecule also registered a clearance in [7] of 53 mL/min/kg.
`Cc1nc2ncnn2c(C)c1CCC(=O)Nc1nnc(-c2ccccc2)s1` yielded a logD in data set [1] of 2.5.
Take `Cc1nc2nc(C)c(C[C@@H]3CCN(c4ccc(-c5ccc(CN6CCN(C)CC6)nn5)cc4)C3)c(C)n2n1`: the logD in data set [1] worked out at 1.8. The half-inhibitory concentration (IC50) in [3] was above 33 µM.
`Cc1nc2nc(C)c(CCNC(=O)c3cnc(-c4ccc(CN5CCOCC5)cc4)cn3)c(C)n2n1` showed a logD in data set [1] of 1.8. Moreover, in [3], inhibition was half-maximal at 24 µM (IC50). Besides, in [2], the solubility is 138 µM (≈ 67.1 µg/mL). In addition, the hepatocyte CLint in data set [4] was determined as 17 µL/min/1e6 cells; in data set [6] it was 2.5 µL/min/1e6 cells. The bioavailability in data set [5] stood at 34%. The same molecule registered a clearance in data set [7] of 31 mL/min/kg.
In turn, `Cc1nc2nc(C)c(O[C@@H]3CCN(c4ccc(-c5ccc(CN6CCOCC6)nn5)cc4)C3)c(C)n2n1` returned a pH-dependent lipophilicity (logD) in data set [1] of 1.8. Further, the fraction unbound – broadly, free concentration divided by total concentration – in [10] was 0.39; in [11], 0.32; in data set [16], 0.3. Besides, the concentration for half-maximal inhibition (IC50) in data set [3] was 29 µM; in data set [22], above 30 µM. Further, the Activity result in [12] and in data set [19] was “Non-Toxic” each time. Also, the GI50 – broadly, the concentration that inhibits growth by half – in [13] stood at 0.026 µM. The results for the clearance in data set [14] and in [23] were 15 mL/min/kg and 14 mL/min/kg, respectively. In addition, the hepatocyte CLint was 1.9 µL/min/1e6 cells in data set [15] and 3.3 µL/min/1e6 cells in data set [20]. The bioavailability in data set [17] amounted to 106%; in [18] it was 84%. Moreover, the solubility thermodynamic in data set [21] was 839 µM (≈ 420 µg/mL). In data set [24], the apical-to-basolateral permeability (Papp A→B) (usually how fast a substance crosses the layer from the apical side) came out at 13 ×10⁻⁶ cm/s.
